Values of other authors as cited in patent US20230398128A1, “PREFERRED ORAL TESTOSTERONE UNDECANOATE THERAPY TO ACHIEVE TESTOSTERONE REPLACEMENT TREATMENT” (Marius Pharmaceuticals LLC, priority 2021, published 2023).

Conditions: for increase in ambulatory SBP: previous testosterone studies

CCCCCCC(=O)O[C@H]1CC[C@H]2[C@@H]3CCC4=CC(=O)CC[C@]4(C)[C@H]3CC[C@]12C [testosterone enanthate]
increase in ambulatory SBP: 3.7 mmHg

CCCCCCCCCCC(=O)O[C@H]1CC[C@H]2[C@@H]3CCC4=CC(=O)CC[C@]4(C)[C@H]3CC[C@]12C [testosterone undecanoate (oral), testosterone undecanoate]
increase in ambulatory SBP: 4.9 mmHg | increase in ambulatory systolic BP (previously reported study, subjects receiving antihypertensive medication): 5.5 mmHg
